Molecular target: DGKα (Homo sapiens (Human), UniProt P23743)
Test: Human DGKα kinase activity inhibition assay (ADP-Glo)
Assay type: biochemical
Conditions: recombinant full-length human DGKα, 55 μM ATP, 7 μM 1,2-dioleoyl-sn-glycerol, read-out: IC50 values of examples in in vitro human DGKa kinase activity inhibition assays
Description: Human DGKα Kinase Activity Inhibition Assay
Human DGKα inhibitory activity of compounds of the present invention was quantified employing the human DGKα kinase activity assay as described in the following paragraphs. In essence, the enzyme activity was measured by quantification of the adenosine-di-phosphate (ADP) generated as a co-product of the enzyme reaction via the “ADP-Glo™ Kinase Assay” kit from the company Promega. This detection system works as follows: In a first step the ATP not consumed in the kinase reaction is quantitatively converted to cAMP employing an adenylate cyclase (“ADP-Glo-reagent”), then the adenylate cyclase is stopped and the ADP generated in the kinase reaction converted to ATP, which subsequently generates in a luciferase-based reaction a glow-luminescence signal (“Kinase Detection Reagent”).
C-terminally FLAG-tagged, recombinant full-length human DGKα (expressed in baculovirus infected insect cells, purified using anti-Flag pulldown and size exclusion chromatography as described below, DGKa_hu_1) was used as enzyme. As substrate for the kinase 1,2-dioleoyl-sn-glycerol, reconstituted in octyl-β-D-glucopyranoside micelles, was used. […] Then 35 volumes of 50 mM MOPS buffer (pH 7.4) were added to yield a solution of 0.28 mM 1,2 dioleoyl-sn-glycerol and 200 mM […], which was aliquoted, flash-frozen in liquid nitrogen, and stored at −20° C. until use.
For the assay 50 nl of a 100-fold concentrated solution of the test compound in dimethyl sulfoxide (DMSO, Sigma) was pipetted into either a white 1536-well or a white low-volume 384-well microtiter plate (both Greiner Bio-One, Frickenhausen, Germany).

DGKα, sequence (P23743 other isoform, or with tags, fused parts or gaps): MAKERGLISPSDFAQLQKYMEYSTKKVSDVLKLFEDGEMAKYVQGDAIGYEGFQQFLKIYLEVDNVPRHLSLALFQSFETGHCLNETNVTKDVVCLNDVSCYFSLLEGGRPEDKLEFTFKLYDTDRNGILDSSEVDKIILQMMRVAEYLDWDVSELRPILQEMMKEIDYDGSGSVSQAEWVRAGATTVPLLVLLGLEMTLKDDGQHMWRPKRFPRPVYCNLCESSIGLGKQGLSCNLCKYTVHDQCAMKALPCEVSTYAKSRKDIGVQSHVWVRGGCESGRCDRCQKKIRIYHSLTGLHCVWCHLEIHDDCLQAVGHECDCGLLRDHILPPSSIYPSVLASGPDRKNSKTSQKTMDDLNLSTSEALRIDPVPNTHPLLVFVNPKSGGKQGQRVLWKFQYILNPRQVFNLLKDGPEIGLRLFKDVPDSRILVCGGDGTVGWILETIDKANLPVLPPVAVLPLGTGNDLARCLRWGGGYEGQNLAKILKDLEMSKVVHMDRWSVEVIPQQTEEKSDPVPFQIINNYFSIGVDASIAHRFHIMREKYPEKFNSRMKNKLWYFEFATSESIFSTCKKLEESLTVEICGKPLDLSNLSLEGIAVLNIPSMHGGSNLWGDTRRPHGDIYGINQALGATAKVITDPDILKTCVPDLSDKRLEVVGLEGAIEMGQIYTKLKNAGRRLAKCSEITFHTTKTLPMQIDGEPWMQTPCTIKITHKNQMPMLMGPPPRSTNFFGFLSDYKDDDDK

Molecule	IC50 [nM]
4-[4-(1,3-benzoxazol-5-yl)piperidin-1-y-1-methyl-2-oxo-1,2-dihydroquinoline-3-carbonitrile [Example 67]	85
Cc1ccc2oc(C3CCN(c4c(C#N)c(=O)n(C)c5ccccc45)CC3C)nc2c1 (mixture of isomers) [Example 111, 1-methyl-4-[3-methyl-4-(5-methyl-1,3-benzoxazol-2-yl)piperidin-1-yl]-2-oxo-1,2-dihydroquinoline-3-carbonitrile, mixture of stereoisomers]	3.2
Cc1ccc2oc(C3CCN(c4c(C#N)c(=O)n(C)c5cc(OC6CCOC6)ccc45)CC3)nc2c1 (racemic) [Example 379, (rac)-1-methyl-4-[4-(5-methyl-1,3-benzoxazol-2-yl)piperidin-1-yl]-2-oxo-7-[(oxolan-3-yl)oxy]-1,2-dihydroquinoline-3-carbonitrile]	1
Cc1ccc2oc(C3CCN(c4c(C#N)c(=O)n(C)c5cc(OC6CCOC6)c(Br)cc45)CC3)nc2c1 (racemic) [Example 424, (rac)-6-bromo-1-methyl-4-[4-(5-methyl-1,3-benzoxazol-2-yl)piperidin-1-yl]-2-oxo-7-[(oxolan-3-yl)oxy]-1,2-dihydroquinoline-3-carbonitrile]	0.3
C=C(c1cc2c(N3CCC(c4nc5cc(C)ccc5o4)CC3)c(C#N)c(=O)n(C)c2cc1OC1CCOC1)C(F)(F)F (racemic) [Example 433, (rac)-1-methyl-4-[4-(5-methyl-1,3-benzoxazol-2-yl)piperidin-1-yl]-2-oxo-7-[(oxolan-3-yl)oxy]-6-(3,3,3-trifluoroprop-1-en-2-yl)-1,2-dihydroquinoline-3-carbonitrile]	8.6
Cc1ccc2oc(C3CCN(c4c(C(N)=O)c(=O)n(C)c5cc(OC6CCOC6)c(C6(C(F)(F)F)CC6)cc45)CC3)nc2c1 (racemic) [Example 518, (rac)-1-methyl-4-[4-(5-methyl-1,3-benzoxazol-2-yl)piperidin-1-yl]-2-oxo-7-[(oxolan-3-yl)oxy]-6-[1-(trifluoromethyl)cyclopropyl]-1,2-dihydroquinoline-3-carboxamide]	596
Cc1ccc2oc(C3CCN(c4c(C#N)c(=O)n(C)c5cc(OCC6CCOC6)c(Cl)cc45)CC3)nc2c1 (racemic) [Example 572, (rac)-6-chloro-1-methyl-4-[4-(5-methyl-1,3-benzoxazol-2-yl)piperidin-1-yl]-2-oxo-7-[(oxolan-3-yl)methoxy]-1,2-dihydroquinoline-3-carbonitrile]	1.5
Cc1ccc2oc(C3CCN(c4c(C#N)c(=O)n(C)c5cc(OC6CCOC6)ccc45)CC3)nc2c1 (single isomer, unassigned) [Example 380, 1-methyl-4-[4-(5-methyl-1,3-benzoxazol-2-yl)piperidin-1-yl]-2-oxo-7-[(oxolan-3-yl)oxy]-1,2-dihydroquinoline-3-carbonitrile]	0.4
Cc1ccc2oc(C3CCN(c4c(C#N)c(=O)n(C)c5cc(OC6CCOC6)ccc45)CC3)nc2c1 (single isomer, unassigned) [Example 381, 1-methyl-4-[4-(5-methyl-1,3-benzoxazol-2-yl)piperidin-1-yl]-2-oxo-7[(oxolan-3-yl)oxy]-1,2-dihydroquinoline-3-carbonitrile]	7.4
Cn1c(=O)c(C#N)c(N2CCC(C)(c3nc4ccccc4o3)CC2)c2ccccc21 [Example 1, 4-[4-(1,3-benzoxazol-2-yl)-4-methylpiperidin-1-yl]-1-methyl-2-oxo-1,2-dihydroquinoline-3-carbonitrile]	1.4
Cn1c(=O)c(C#N)c(N2CCC(c3nc4ccccc4o3)CC2)c2ccccc21 [Example 2, 4-[4-(1,3-benzoxazol-2-yl)piperidin-1-yl]-1-methyl-2-oxo-1,2-dihydroquinoline-3-carbonitrile]	6.4
Cn1c(=O)c(C#N)c(N2CCC(c3nc4cccc(F)c4o3)CC2)c2ccccc21 [Example 3, 4-[4-(7-fluoro-1,3-benzoxazol-2-yl)piperidin-1-yl]-1-methyl-2-oxo-1,2-dihydroquinoline-3-carbonitrile]	2.6
Cn1c(=O)c(C#N)c(N2CCC(c3nc4ccc(F)cc4o3)CC2)c2ccccc21 [Example 4, 4-[4-(6-fluoro-1,3-benzoxazol-2-yl)piperidin-1-yl]-1-methyl-2-oxo-1,2-dihydroquinoline-3-carbonitrile]	2.8
Cc1ccc2oc(C3CCN(c4c(C#N)c(=O)n(C)c5ccccc45)CC3)nc2c1 [Example 5, 1-methyl-4-[4-(5-methyl-1,3-benzoxazol-2-yl)piperidin-1-yl]-2-oxo-1,2-dihydroquinoline-3-carbonitrile]	1.6
Cn1c(=O)c(C#N)c(N2CCC(c3nc4cc(F)ccc4o3)CC2)c2ccccc21 [Example 6, 4-[4-(5-fluoro-1,3-benzoxazol-2-yl)piperidin-1-yl]-1-methyl-2-oxo-1,2-dihydroquinoline-3-carbonitrile]	4.3
Cc1ccc2nc(C3CCN(c4c(C#N)c(=O)n(C)c5ccccc45)CC3)oc2c1 [Example 7, 1-methyl-4-[4-(6-methyl-1,3-benzoxazol-2-yl)piperidin-1-yl]-2-oxo-1,2-dihydroquinoline-3-carbonitrile]	3.2
CC(C)c1ccc2oc(C3CCN(c4c(C#N)c(=O)n(C)c5ccccc45)CC3)nc2c1 [Example 8, 1-methyl-2-oxo-4-{4-[5-(propan-2-yl)-1,3-benzoxazol-2-yl]piperidin-1-yl}-1,2-dihydroquinoline-3-carbonitrile]	3.2
Cn1c(=O)c(C#N)c(N2CCC(c3nc4ccc(Cl)cc4o3)CC2)c2ccccc21 [Example 9, 4-[4-(6-chloro-1,3-benzoxazol-2-yl)piperidin-1-yl]-1-methyl-2-oxo-1,2-dihydroquinoline-3-carbonitrile]	3.3
Cn1c(=O)c(C#N)c(N2CCC(c3nc4cc(Cl)ccc4o3)CC2)c2ccccc21 [Example 11, 4-[4-(5-chloro-1,3-benzoxazol-2-yl)piperidin-1-yl]-1-methyl-2-oxo-1,2-dihydroquinoline-3-carbonitrile]	3.8
Cn1c(=O)c(C#N)c(N2CCC(c3nc4ccccc4s3)CC2)c2ccccc21 [Example 12, 4-[4-(1,3-benzothiazol-2-yl)piperidin-1-yl]-1-methyl-2-oxo-1,2-dihydroquinoline-3-carbonitrile]	3.5
Cn1c(=O)c(C#N)c(N2CCC(c3nc4cc(F)ccc4s3)CC2)c2ccccc21 [Example 13, 4-[4-(5-fluoro-1,3-benzothiazol-2-yl)piperidin-1-yl]-1-methyl-2-oxo-1,2-dihydroquinoline-3-carbonitrile]	5.1
Cn1c(=O)c(C#N)c(N2CCC(c3nc4ccc(Br)cc4s3)CC2)c2ccccc21 [Example 14, 4-[4-(6-bromo-1,3-benzothiazol-2-yl)piperidin-1-yl]-1-methyl-2-oxo-1,2-dihydroquinoline-3-carbonitrile]	4.4
Cc1cccc2nc(C3CCN(c4c(C#N)c(=O)n(C)c5ccccc45)CC3)oc12 [Example 15, 1-methyl-4-[4-(7-methyl-1,3-benzoxazol-2-yl)piperidin-1-yl]-2-oxo-1,2-dihydroquinoline-3-carbonitrile]	11
Cn1c(=O)c(C#N)c(N2CCC(F)(c3nc4ccccc4s3)CC2)c2ccccc21 [Example 16, 4-[4-(1,3-benzothiazol-2-yl)-4-fluoropiperidin-1-yl]-1-methyl-2-oxo-1,2-dihydroquinoline-3-carbonitrile]	9.9
